Laboratory results published in patent US8952157B2, “Apoptosis-inducing agents for the treatment of cancer and immune and autoimmune diseases” (AbbVie Inc., priority 2008, dated 2015).
Like-named read-outs stand apart in the source and are kept apart here.

Target: GST-Bcl-2 (Homo sapiens (Human), UniProt P10415)
Test: Time Resolved-Fluorescence Resonance Energy Transfer (TR-FRET) Bcl-2 binding assay
Procedure, shortened: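 Ki values derived from TR-FRET displacement of F-Bak peptide from GST-Bcl-2, detected with Tb-labelled anti-GST antibody (ex 340, em 520/495 nm). Compound dilution series started at 50 μM (2× starting concentration); room-temperature incubation 3 hours.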

[1] = GST-Bcl-2 1 nM, F-Bak peptide probe 100 nM, Tb-anti-GST antibody 1 nM, Ki by Wang's equation

Sequence of GST-Bcl-2 (P10415 whole entry): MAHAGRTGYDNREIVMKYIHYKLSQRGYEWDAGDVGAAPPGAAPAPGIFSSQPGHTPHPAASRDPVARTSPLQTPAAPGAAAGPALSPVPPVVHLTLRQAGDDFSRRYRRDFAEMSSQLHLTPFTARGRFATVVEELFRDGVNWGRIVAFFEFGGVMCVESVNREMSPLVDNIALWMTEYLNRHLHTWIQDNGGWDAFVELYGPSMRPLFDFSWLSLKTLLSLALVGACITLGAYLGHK

Compound: CC1(C)CCC(CN2CCN(c3ccc(C(=O)NS(=O)(=O)c4ccc(NCC5CCOCC5)c([N+](=O)[O-])c4)c(Oc4cnc(N)c(Br)c4)c3)CC2)=C(c2ccc(Cl)cc2)C1 [Example 350, 2-[(6-amino-5-bromopyridin-3-yl)oxy]-4-(4-{[2-(4-chlorophenyl)-4,4-dimethylcyclohex-1-en-1-yl]methyl}piperazin-1-yl)-N-({3-nitro-4-[(tetrahydro-2H-pyran-4-ylmethyl)amino]phenyl}sulfonyl)benzamide]
- Ki [1]: < 0.01 nM

Compound: CC1(C)CCC(CN2CCN(c3ccc(C(=O)NS(=O)(=O)c4ccc(NCC5CCOCC5)c([N+](=O)[O-])c4)c(Oc4cnc(N)c(C(N)=O)c4)c3)CC2)=C(c2ccc(Cl)cc2)C1 [Example 351, 2-amino-5-(5-(4-{[2-(4-chlorophenyl)-4,4-dimethylcyclohex-1-en-1-yl]methyl}piperazin-1-yl)-2-{[({3-nitro-4-[(tetrahydro-2H-pyran-4-ylmethyl)amino]phenyl}sulfonyl)amino]carbonyl}phenoxy)nicotinamide]
- Ki [1]: 2.84 nM

Compound: CC1(C)CCC(CN2CCN(c3ccc(C(=O)NS(=O)(=O)c4ccc(NCC5CCOCC5)c([N+](=O)[O-])c4)c(Oc4cnc(N)c(C#N)c4)c3)CC2)=C(c2ccc(Cl)cc2)C1 [Example 352, 2-[(6-amino-5-cyanopyridin-3-yl)oxy]-4-(4-{[2-(4-chlorophenyl)-4,4-dimethylcyclohex-1-en-1-yl]methyl}piperazin-1-yl)-N-({3-nitro-4-[(tetrahydro-2H-pyran-4-ylmethyl)amino]phenyl}sulfonyl)benzamide]
- Ki [1]: 0.079 nM

Compound: CC1(C)CCC(CN2CCN(c3ccc(C(=O)NS(=O)(=O)c4ccc(N[C@@H]5CCN(CC(F)F)C5)c([N+](=O)[O-])c4)c(Oc4cnc(N)c(Cl)c4)c3)CC2)=C(c2ccc(Cl)cc2)C1 [Example 353, 2-[(6-amino-5-chloropyridin-3-yl)oxy]-4-(4-{[2-(4-chlorophenyl)-4,4-dimethylcyclohex-1-en-1-yl]methyl}piperazin-1-yl)-N-[(4-{[(3R)-1-(2,2-difluoroethyl)pyrrolidin-3-yl]amino}-3-nitrophenyl)sulfonyl]benzamide]
- Ki [1]: 0.016 nM

Compound: CN1CCC(Nc2ccc(S(=O)(=O)NC(=O)c3ccc(N4CCN(CC5=C(c6ccc(Cl)cc6)CC(C)(C)CC5)CC4)cc3Oc3cnc(N)c(Cl)c3)cc2S(=O)(=O)C(F)(F)F)CC1 [Example 354, 2-[(6-amino-5-chloropyridin-3-yl)oxy]-4-(4-{[2-(4-chlorophenyl)-4,4-dimethylcyclohex-1-en-1-yl]methyl}piperazin-1-yl)-N-({4-[(1-methylpiperidin-4-yl)amino]-3-[(trifluoromethyl)sulfonyl]phenyl}sulfonyl)benzamide]
- Ki [1]: 0.114 nM

Compound: CC(=O)Nc1ccc(Oc2cc(N3CCN(CC4=C(c5ccc(Cl)cc5)CC(C)(C)CC4)CC3)ccc2C(=O)NS(=O)(=O)c2ccc(NCC3CCOCC3)c([N+](=O)[O-])c2)cn1 [Example 355, 2-{[6-(acetylamino)pyridin-3-yl]oxy}-4-(4-{[2-(4-chlorophenyl)-4,4-dimethylcyclohex-1-en-1-yl]methyl}piperazin-1-yl)-N-({3-nitro-4-[(tetrahydro-2H-pyran-4-ylmethyl)amino]phenyl}sulfonyl)benzamide]
- Ki [1]: 9.57 nM

Compound: CC1(C)CCC(CN2CCN(c3ccc(C(=O)NS(=O)(=O)c4ccc(NCC5CCOCC5)c([N+](=O)[O-])c4)c(Oc4ccc(NS(C)(=O)=O)nc4)c3)CC2)=C(c2ccc(Cl)cc2)C1 [Example 356, 4-(4-{[2-(4-chlorophenyl)-4,4-dimethylcyclohex-1-en-1-yl]methyl}piperazin-1-yl)-2-({6-[(methylsulfonyl)amino]pyridin-3-yl}oxy)-N-({3-nitro-4-[(tetrahydro-2H-pyran-4-ylmethyl)amino]phenyl}sulfonyl)benzamide]
- Ki [1]: 2.82 nM

Compound: CC1(C)CCC(CN2CCN(c3ccc(C(=O)NS(=O)(=O)c4ccc(N[C@@H]5CCN(C(CF)CF)C5)c([N+](=O)[O-])c4)c(Oc4cc5cc[nH]c5cc4F)c3)CC2)=C(c2ccc(Cl)cc2)C1 [Example 357, 4-(4-{[2-(4-chlorophenyl)-4,4-dimethylcyclohex-1-en-1-yl]methyl}piperazin-1-yl)-N-{[4-({(3R)-1-[2-fluoro-1-(fluoromethyl)ethyl]pyrrolidin-3-yl}amino)-3-nitrophenyl]sulfonyl}-2-[(6-fluoro-1H-indol-5-yl)oxy]benzamide]
- Ki [1]: 0.177 nM

Compound: CC1(C)CCC(CN2CCN(c3ccc(C(=O)NS(=O)(=O)c4ccc(NC5CCN(C6CC6)CC5)c([N+](=O)[O-])c4)c(Oc4cnc(N)c(Cl)c4)c3)CC2)=C(c2ccc(Cl)cc2)C1 [Example 358, 2-[(6-amino-5-chloropyridin-3-yl)oxy]-4-(4-{[2-(4-chlorophenyl)-4,4-dimethylcyclohex-1-en-1-yl]methyl}piperazin-1-yl)-N-({4-[(1-cyclopropylpiperidin-4-yl)amino]-3-nitrophenyl}sulfonyl)benzamide]
- Ki [1]: 0.062 nM

Compound: CN1CCN(Nc2ccc(S(=O)(=O)NC(=O)c3ccc(N4CCN(CC5=C(c6ccc(Cl)cc6)CC(C)(C)CC5)CC4)cc3Oc3cnc(N)c(Br)c3)cc2[N+](=O)[O-])CC1 [Example 359, 2-[(6-amino-5-bromopyridin-3-yl)oxy]-4-(4-{[2-(4-chlorophenyl)-4,4-dimethylcyclohex-1-en-1-yl]methyl}piperazin-1-yl)-N-({4-[(4-methylpiperazin-1-yl)amino]-3-nitrophenyl}sulfonyl)benzamide]
- Ki [1]: 0.11 nM

Compound: CC1(C)CCC(CN2CCN(c3ccc(C(=O)NS(=O)(=O)c4ccc(OCC5(F)CCOCC5)c([N+](=O)[O-])c4)c(Oc4cnc(N)c(Br)c4)c3)CC2)=C(c2ccc(Cl)cc2)C1 [Example 360, 2-[(6-amino-5-bromopyridin-3-yl)oxy]-4-(4-{[2-(4-chlorophenyl)-4,4-dimethylcyclohex-1-en-1-yl]methyl}piperazin-1-yl)-N-({4-[(4-fluorotetrahydro-2H-pyran-4-yl)methoxy]-3-nitrophenyl}sulfonyl)benzamide]
- Ki [1]: 0.05 nM

Compound: CC1(C)CCC(CN2CCN(c3ccc(C(=O)NS(=O)(=O)c4ccc(NCC5COCCO5)c([N+](=O)[O-])c4)c(Oc4cnc(N)c(Br)c4)c3)CC2)=C(c2ccc(Cl)cc2)C1 (stereo not shown) [Example 361, 2-[(6-amino-5-bromopyridin-3-yl)oxy]-4-(4-{[2-(4-chlorophenyl)-4,4-dimethylcyclohex-1-en-1-yl]methyl}piperazin-1-yl)-N-({4-[(1,4-dioxan-2-ylmethyl)amino]-3-nitrophenyl}sulfonyl)benzamide]
- Ki [1]: 0.015 nM

Compound: Cc1cc(Oc2cc(N3CCN(CC4=C(c5ccc(Cl)cc5)CC(C)(C)CC4)CC3)ccc2C(=O)NS(=O)(=O)c2ccc(NCC3CCOCC3)c([N+](=O)[O-])c2)cnc1N [Example 362, 2-[(6-amino-5-methylpyridin-3-yl)oxy]-4-(4-{[2-(4-chlorophenyl)-4,4-dimethylcyclohex-1-en-1-yl]methyl}piperazin-1-yl)-N-({3-nitro-4-[(tetrahydro-2H-pyran-4-ylmethyl)amino]phenyl}sulfonyl)benzamide]
- Ki [1]: 0.033 nM

Compound: CC1(C)CCC(CN2CCN(c3ccc(C(=O)NS(=O)(=O)c4ccc(NCC5(F)CCOCC5)c([N+](=O)[O-])c4)c(Oc4cnc(N)c(Cl)c4)c3)CC2)=C(c2ccc(Cl)cc2)C1 [Example 363, 2-[(6-amino-5-chloropyridin-3-yl)oxy]-4-(4-{[2-(4-chlorophenyl)-4,4-dimethylcyclohex-1-en-1-yl]methyl}piperazin-1-yl)-N-[(4-{[(4-fluorotetrahydro-2H-pyran-4-yl)methyl]amino}-3-nitrophenyl)sulfonyl]benzamide]
- Ki [1]: < 0.01 nM

Compound: CC1(C)CCC(CN2CCN(c3ccc(C(=O)NS(=O)(=O)c4ccc(NC5CCN(C6COC6)CC5)c([N+](=O)[O-])c4)c(Oc4cnc(N)c(Cl)c4)c3)CC2)=C(c2ccc(Cl)cc2)C1 [Example 364, 2-[(6-amino-5-chloropyridin-3-yl)oxy]-4-(4-{[2-(4-chlorophenyl)-4,4-dimethylcyclohex-1-en-1-yl]methyl}piperazin-1-yl)-N-({3-nitro-4-[(1-oxetan-3-ylpiperidin-4-yl)amino]phenyl}sulfonyl)benzamide]
- Ki [1]: 0.014 nM

Compound: CC(C)c1cc(Oc2cc(N3CCN(CC4=C(c5ccc(Cl)cc5)CC(C)(C)CC4)CC3)ccc2C(=O)NS(=O)(=O)c2ccc(NCC3CCOCC3)c([N+](=O)[O-])c2)cnc1N [Example 365, 2-[(6-amino-5-isopropylpyridin-3-yl)oxy]-4-(4-{[2-(4-chlorophenyl)-4,4-dimethylcyclohex-1-en-1-yl]methyl}piperazin-1-yl)-N-({3-nitro-4-[(tetrahydro-2H-pyran-4-ylmethyl)amino]phenyl}sulfonyl)benzamide]
- Ki [1]: 4.55 nM

Compound: CC1(C)CCC(CN2CCN(c3ccc(C(=O)NS(=O)(=O)c4ccc(NCC5CCOCC5)c([N+](=O)[O-])c4)c(Oc4cnc(N)c(C5CC5)c4)c3)CC2)=C(c2ccc(Cl)cc2)C1 [Example 366, 2-[(6-amino-5-cyclopropylpyridin-3-yl)oxy]-4-(4-{[2-(4-chlorophenyl)-4,4-dimethylcyclohex-1-en-1-yl]methyl}piperazin-1-yl)-N-({3-nitro-4-[(tetrahydro-2H-pyran-4-ylmethyl)amino]phenyl}sulfonyl)benzamide]
- Ki [1]: 6.05 nM

Compound: CO[C@H]1CC[C@H](CNc2ccc(S(=O)(=O)NC(=O)c3ccc(N4CCN(CC5=C(c6ccc(Cl)cc6)CC(C)(C)CC5)CC4)cc3Oc3cnc(N)c(Br)c3)cc2[N+](=O)[O-])CC1 [Example 367, Trans-2-[(6-amino-5-bromopyridin-3-yl)oxy]-4-(4-{[2-(4-chlorophenyl)-4,4-dimethylcyclohex-1-en-1-yl]methyl}piperazin-1-yl)-N-[(4-{[(4-methoxycyclohexyl)methyl]amino}-3-nitrophenyl)sulfonyl]benzamide]
- Ki: 0.012 nM

Compound: Cn1c(=O)[nH]c2cccc(Oc3cc(N4CCN(CC5=C(c6ccc(Cl)cc6)CC(C)(C)CC5)CC4)ccc3C(=O)NS(=O)(=O)c3ccc(NCC4CCOCC4)c([N+](=O)[O-])c3)c21 [Example 368, 4-(4-{[2-(4-chlorophenyl)-4,4-dimethylcyclohex-1-en-1-yl]methyl}piperazin-1-yl)-2-[(3-methyl-2-oxo-2,3-dihydro-1H-benzimidazol-4-yl)oxy]-N-({3-nitro-4-[(tetrahydro-2H-pyran-4-ylmethyl)amino]phenyl}sulfonyl)benzamide]
- Ki [1]: < 0.01 nM
